The values below come from patent US20250127801A1, “BRIDGED TRICYCLIC CARBAMOYLPYRIDONE COMPOUNDS AND USES THEREOF” (priority 2023, published 2025).

The test system of one data set is HIV-1 (IIIB). Kind of data set: microbe, parasite or virus in culture. The format is cell-based.
The next data set can be described thus: in vitro. Particulars: human; for CC50 at 5 days: uninfected MT-4 cells.
The next data set can be described thus: physchem. Particulars: 23 °C, thermodynamic from solid; for solubility thermodynamic: fassif; for solubility thermodynamic at 24 h: FaSSIF.
Setting [1] is: Human immunodeficiency virus 1, IIIB, MT4, 120 h, read-out: MT4 EC50 (nM).
Setting [2] is: Human immunodeficiency virus 1, MT4, 120 h, HIV-1 (IIIB) replication in MT-4 cells, 5 days incubation, Cell Titer Glo, read-out: MT4 EC50.

Values after ≈ are worked out from the molar mass of the structure shown. Where two headings read alike, the source gives them in different places. Bounds are passed on as bounds.

The EC50 is the concentration needed to bring the measured effect to its halfway point. A word on the thermodynamic solubility: it is the concentration in solution at equilibrium with solid. Consider `CC1=NO[C@@]2(CC[C@H](C)N3C[C@H]2n2cc(C(=O)NCc4ccc(F)cc4F)c(=O)c(OCc4ccncc4OP(=O)(O)O)c2C3=O)C1` [Compound 70, 4-((((3′S,5S,7′R)-10′-((2,4-difluorobenzyl)carbamoyl)-3,3′-dimethyl-1′,11′-dioxo-1′,4′,5′,11′-tetrahydro-3′H,4H,7′H-spiro[isoxazole-5,6′-[2,7]methanopyrido[1,2-a][1,4]diazonin]-12′-yl)oxy)methyl)pyridin-3-yl dihydrogen phosphate], for which, in the data set on HIV-1 (IIIB) (setting [1]), the EC50 came out at 1.63 nM. This compound showed a CC50 in the data set “in vitro” of 10.2 µM. This compound displayed a solubility (thermodynamic) in “physchem” of 2460 µg/mL.
For `CC1=NO[C@@]2(CC[C@H](C)N3C[C@H]2n2cc(C(=O)NCc4ccc(F)cc4F)c(=O)c(OCOC(=O)O[C@H]4CCC[C@@H]4OP(=O)(O)O)c2C3=O)C1` [Compound 46, (((3′S,5S,7′R)-10′-((2,4-difluorobenzyl)carbamoyl)-3,3′-dimethyl-1′,11′-dioxo-1′,4′,5′,11′-tetrahydro-3′H,4H,7′H-spiro[isoxazole-5,6′-[2,7]methanopyrido[1,2-a][1,4]diazonin]-12′-yl)oxy)methyl ((1S,2S)-2-(phosphonooxy)cyclopentyl) carbonate], in the data set with HIV-1 (IIIB) (setting [2]), the EC50 was 2.51 nM. In the data set “in vitro”, this compound showed a CC50 at 5 days of 15.1 µM. For the same compound, the solubility (thermodynamic) at 24 h in the data set “physchem” amounted to 4850 µg/mL (≈ 6.69 mM).
Regarding `CC1=NO[C@@]2(CC[C@H](C)N3C[C@H]2n2cc(C(=O)NCc4ccc(F)cc4F)c(=O)c(OCOC(=O)N(C)Cc4ccc(OP(=O)(O)O)cc4)c2C3=O)C1` [Compound 39, (((3′S,5S,7′R)-10′-((2,4-difluorobenzyl)carbamoyl)-3,3′-dimethyl-1′,11′-dioxo-1′,4′,5′,11′-tetrahydro-3′H,4H,7′H-spiro[isoxazole-5,6′-[2,7]methanopyrido[1,2-a][1,4]diazonin]-12′-yl)oxy)methyl methyl(4-(phosphonooxy)benzyl)carbamate], the EC50 with HIV-1 (IIIB) (setting [1]) worked out at 88.7 nM. The CC50 in “in vitro” was no less than 50 µM. For the same compound, in “physchem”, the solubility (thermodynamic) was 4830 µg/mL (≈ 6.36 mM).
`CC1=NO[C@@]2(CC[C@H](C)N3C[C@H]2n2cc(C(=O)NCc4ccc(F)cc4F)c(=O)c(OC(=O)CC(C)(C)c4c(C)cc(C)cc4OP(=O)(O)O)c2C3=O)C1` [Compound 26, (3′S,5S,7′R)-10′-((2,4-difluorobenzyl)carbamoyl)-3,3′-dimethyl-1′,11′-dioxo-1′,4′,5′,11′-tetrahydro-3′H,4H,7′H-spiro[isoxazole-5,6′-[2,7]methanopyrido[1,2-a][1,4]diazonin]-12′-yl 3-(2,4-dimethyl-6-(phosphonooxy)phenyl)-3-methylbutanoate]: the EC50 in the data set on HIV-1 (IIIB) (setting [1]) was 1.13 nM. Moreover, the CC50 in “in vitro” stood at 12.2 µM. Also, the thermodynamic solubility in “physchem” turned out to be 4300 µg/mL (≈ 5.57 mM).
Take `CCCCCCCCCCCCCC(=O)Oc1ccc(C(=O)Oc2c3n(cc(C(=O)NCc4ccc(F)cc4F)c2=O)[C@@H]2CN(C3=O)[C@@H](C)CC[C@]23CC(C)=NO3)cc1` [Compound 100, (3′S,5S,7′R)-10′-((2,4-difluorobenzyl)carbamoyl)-3,3′-dimethyl-1′,11′-dioxo-1′,4′,5′,11′-tetrahydro-3′H,4H,7′H-spiro[isoxazole-5,6′-[2,7]methanopyrido[1,2-a][1,4]diazonin]-12′-yl 4-(tetradecanoyloxy)benzoate]: the EC50 with HIV-1 (IIIB) (setting [2]) stood at 2.94 nM. The same compound displayed a CC50 at 5 days in the data set “in vitro” of 12.8 µM. The compound also gave a thermodynamic solubility at 24 h in “physchem” of 64.5 µg/mL (≈ 0.079 mM).
For `CC1=NO[C@@]2(CC[C@H](C)N3C[C@H]2n2cc(C(=O)NCc4ccc(F)cc4F)c(=O)c(OCOC(=O)OCCC(C)(C)c4c(CC(=O)O)cc(C)cc4OP(=O)(O)O)c2C3=O)C1` [Compound 23, 2-(2-(4-((((((3′S,5S,7′R)-10′-((2,4-difluorobenzyl)carbamoyl)-3,3′-dimethyl-1′,11′-dioxo-1′,4′,5′,11′-tetrahydro-3′H,4H,7′H-spiro[isoxazole-5,6′-[2,7]methanopyrido[1,2-a][1,4]diazonin]-12′-yl)oxy)methoxy)carbonyl)oxy)-2-methylbutan-2-yl)-5-methyl-3-(phosphonooxy)phenyl)acetic acid], the EC50 with HIV-1 (IIIB) (setting [1]) stood at 2.11 nM. This compound also showed a CC50 in “in vitro” of 14.6 µM. In addition, in “physchem”, the solubility (thermodynamic) came out at 4750 µg/mL (≈ 5.43 mM).
With `CC1=NO[C@@]2(CC[C@H](C)N3C[C@H]2n2cc(C(=O)NCc4ccc(F)cc4F)c(=O)c(OCOC(=O)O[C@@H]4CC[C@H](OP(=O)(O)O)C4)c2C3=O)C1` [Compound 54, (((3′S,5S,7′R)-10′-((2,4-difluorobenzyl)carbamoyl)-3,3′-dimethyl-1′11′-dioxo-1′,4′,5′,11′-tetrahydro-3′H,4H,7′H-spiro[isoxazole-5,6′-[2,7]methanopyrido[1,2-a][1,4]diazonin]-12′-yl)oxy)methyl ((cis)-3-(phosphonooxy)cyclopentyl) carbonate], the EC50 in the data set with HIV-1 (IIIB) (setting [2]) was 9.29 nM. The same compound gave a CC50 at 5 days in “in vitro” of no less than 50 µM. The solubility (thermodynamic) at 24 h in the data set “physchem” turned out to be 5280 µg/mL (≈ 7.29 mM).
The like results for `CC1=NO[C@@]2(CC[C@H](C)N3C[C@H]2n2cc(C(=O)NCc4ccc(F)cc4F)c(=O)c(OCc4oc(=O)oc4C)c2C3=O)C1` [Compound 22, (3′S,5S,7′R)—N-(2,4-difluorobenzyl)-3,3′-dimethyl-12′-((5-methyl-2-oxo-1,3-dioxol-4-yl)methoxy)-1′,11′-dioxo-1′,4′,5′,11′-tetrahydro-3′H,4H,7′H-spiro[isoxazole-5,6′-[2,7]methanopyrido[1,2-a][1,4]diazonine]-10′-carboxamide] were, in that order, 1.18 nM, 12.4 µM and 90 µg/mL (≈ 0.15 mM).
For `CC1=NO[C@@]2(CC[C@H](C)N3C[C@H]2n2cc(C(=O)NCc4ccc(F)cc4F)c(=O)c(OCOC(=O)CC(C)(C)c4c(CC(=O)N5CCOCC5)cc(C)cc4OP(=O)(O)O)c2C3=O)C1` [Compound 58, (((3′S,5S,7′R)-10′-((2,4-difluorobenzyl)carbamoyl)-3,3′-dimethyl-1′,11′-dioxo-1′,4′,5′,11′-tetrahydro-3′H,4H,7′H-spiro[isoxazole-5,6′-[2,7]methanopyrido[1,2-a][1,4]diazonin]-12′-yl)oxy)methyl 3-methyl-3-(4-methyl-2-(2-morpholino-2-oxoethyl)-6-(phosphonooxy)phenyl)butanoate], in the data set with HIV-1 (IIIB) (setting [1]), the EC50 is 5.78 nM. In the data set “in vitro”, the CC50 was determined as 29 µM. The solubility (thermodynamic) in the data set “physchem” was found to be 4640 µg/mL (≈ 5.08 mM).
In the case of `CC1=NO[C@@]2(CC[C@H](C)N3C[C@H]2n2cc(C(=O)NCc4ccc(F)cc4F)c(=O)c(OCOC(=O)OCC4(COP(=O)(O)O)COC(=O)N4C)c2C3=O)C1` (stereo partly drawn) [Compound 55, (((3′S,5S,7′R)-10′-((2,4-difluorobenzyl)carbamoyl)-3,3′-dimethyl-1′,11′-dioxo-1′,4′,5′,11′-tetrahydro-3′H,4H,7′H-spiro[isoxazole-5,6′-[2,7]methanopyrido[1,2-a][1,4]diazonin]-12′-yl)oxy)methyl ((3-methyl-2-oxo-4-((phosphonooxy)methyl)oxazolidin-4-yl)methyl) carbonate], the EC50 with HIV-1 (IIIB) (setting [2]) turned out to be 2.5 nM. In the data set “in vitro”, this compound had a CC50 at 5 days of 12.9 µM. The compound also came in with a thermodynamic solubility at 24 h in the data set “physchem” of 5520 µg/mL (≈ 7.05 mM).
The like results for `CC1=NO[C@@]2(CC[C@H](C)N3C[C@H]2n2cc(C(=O)NCc4ccc(F)cc4F)c(=O)c(OCOC(=O)N(C)c4ncccc4COC(=O)[C@@H](N)CCCCN)c2C3=O)C1` [Compound 10, (2-((((((3′S,5S,7′R)-10′-((2,4-difluorobenzyl)carbamoyl)-3,3′-dimethyl-1′,11′-dioxo-1′,4′,5′,11′-tetrahydro-3′H,4H,7′H-spiro[isoxazole-5,6′-[2,7]methanopyrido[1,2-a][1,4]diazonin]-12′-yl)oxy)methoxy)carbonyl)(methyl)amino)pyridin-3-yl)methyl L-lysinate] were, in that order, 3.19 nM, 10.2 µM and 3320 µg/mL (≈ 4.11 mM).
With `CC1=NO[C@@]2(CC[C@H](C)N3C[C@H]2n2cc(C(=O)NCc4ccc(F)cc4F)c(=O)c(OCOC(=O)OCC4(COP(=O)(O)O)CCC4)c2C3=O)C1` [Compound 47, (((3′S,5S,7′R)-10′-((2,4-difluorobenzyl)carbamoyl)-3,3′-dimethyl-1′,11′-dioxo-1′,4′,5′,11′-tetrahydro-3′H,4H,7′H-spiro[isoxazole-5,6′-[2,7]methanopyrido[1,2-a][1,4]diazonin]-12′-yl)oxy)methyl ((1-((phosphonooxy)methyl)cyclobutyl)methyl) carbonate], in the data set with HIV-1 (IIIB) (setting [2]), the EC50 is 2.22 nM. In the data set “in vitro”, this compound returned a CC50 at 5 days of 11.2 µM. For the same compound, the solubility (thermodynamic) at 24 h in the data set “physchem” is 4860 µg/mL (≈ 6.57 mM).
Take `CC1=NO[C@@]2(CC[C@H](C)N3C[C@H]2n2cc(C(=O)NCc4ccc(F)cc4F)c(=O)c(OCOC(=O)N4CCC[C@H]4COP(=O)(O)O)c2C3=O)C1` [Compound 66, (((3′S,5S,7′R)-10′-((2,4-difluorobenzyl)carbamoyl)-3,3′-dimethyl-1′,11′-dioxo-1′,4′,5′,11′-tetrahydro-3′H,4H,7′H-spiro[isoxazole-5,6′-[2,7]methanopyrido[1,2-a][1,4]diazonin]-12′-yl)oxy)methyl (2S)-2-((phosphonooxy)methyl)pyrrolidine-1-carboxylate]: the EC50 in the data set on HIV-1 (IIIB) (setting [2]) amounted to 63.8 nM. In addition, the CC50 at 5 days in the data set “in vitro” is no less than 50 µM. The compound also returned a solubility (thermodynamic) at 24 h in the data set “physchem” of 4820 µg/mL (≈ 6.67 mM).
Consider `CC1=NO[C@@]2(CC[C@H](C)N3C[C@H]2n2cc(C(=O)NCc4ccc(F)cc4F)c(=O)c(OCc4ccc(OP(=O)(O)O)cn4)c2C3=O)C1` [Compound 71, 6-((((3′S,5S,7′R)-10′-((2,4-difluorobenzyl)carbamoyl)-3,3′-dimethyl-1′,11′-dioxo-1′,4′,5′,11′-tetrahydro-3′H,4H,7′H-spiro[isoxazole-5,6′-[2,7]methanopyrido[1,2-a][1,4]diazonin]-12′-yl)oxy)methyl)pyridin-3-yl dihydrogen phosphate], for which, in the data set with HIV-1 (IIIB) (setting [1]), the EC50 worked out at 1.02 nM. The compound also yielded a CC50 in “in vitro” of 9.3 µM. Also, the solubility (thermodynamic) in “physchem” was found to be 3470 µg/mL.
